Measured values: PubChem BioAssay AID328 (DTP/NCI, 2004)
Several values for one entry are separate records, joined by “and”; a condition that tells them apart may be missing. Equal entries are not always repeated. Inconclusive results and toxic doses are left out. The calls were made as follows: active = survival T/C of 150% or more; inactive = T/C below 125% in these data.

Test system: BDF1 mice, P388 leukemia ip, median survival T/C
Test: NCI In Vivo Anticancer Drug Screen. Data for tumor model P388 Leukemia (intraperitoneal) in B6D2F1 (BDF1) mice
Conditions: endpoint: median survival time, higher = longer survival
Method in brief: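 T/C = treated-group survival ÷ vehicle-control survival; tumour transplanted into mice before dosing.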

Measured: T/C

CC[C@]1(O)C[C@H]2CN(CCc3c([nH]c4ccccc34)[C@@](C(=O)OC)(c3cc4c(cc3OC)N(C=O)[C@H]3[C@@](O)(C(=O)OC)[C@H](OC(C)=O)[C@]5(CC)C=CCN6CC[C@]43[C@@H]65)C2)C1
225 % of control and 116 % of control: dose: 1200.0 micrograms/kg/injection, schedule: Q04DX003 (ip), vehicle: saline
inactive: dose: 0.03 mg/kg/injection, schedule: Q01DX009 (ip), vehicle: water 86 % of control | dose: 0.06 mg/kg/injection, schedule: Q04DX003 (ip), vehicle: water 90 % of control | dose: 0.5 mg/kg/injection, schedule: Q01DX009 (ip), vehicle: saline 90 % of control | dose: 0.5 mg/kg/injection, schedule: Q01DX010 (ip), vehicle: saline 86 % of control and 90 % of control | dose: 1.56 mg/kg/injection, schedule: Q04DX002 (ip), vehicle: saline 90 % of control | dose: 1.8 mg/kg/injection, schedule: Q04DX003 (ip), vehicle: clinical formulation 113 % of control | dose: 2.0 mg/kg/injection, schedule: Q04DX003 (ip), vehicle: saline 116 % of control | dose: 4.0 mg/kg/injection, schedule: Q04DX003 (ip), vehicle: water 111 % of control | dose: 250.0 micrograms/kg/injection, schedule: Q03HX024 (ip), vehicle: saline 90 % of control | dose: 500.0 micrograms/kg/injection, schedule: Q03HX016 (ip), vehicle: clinical formulation 123 % of control | dose: 600.0 micrograms/kg/injection, schedule: Q01DX009 (ip), vehicle: saline 120 % of control | dose: 2000.0 micrograms/kg/injection, schedule: Q04DX003 (ip), vehicle: clinical formulation 95 % of control
active: dose: 0.03 mg/kg/injection, schedule: Q01DX010 (ip), vehicle: saline 163 % of control and 172 % of control (2×) | dose: 0.08 mg/kg/injection, schedule: Q01DX009 (ip), vehicle: saline 172 % of control | dose: 0.12 mg/kg/injection, schedule: Q01DX009 (ip), vehicle: saline 300 % of control | dose: 0.13 mg/kg/injection, schedule: Q01DX010 (ip), vehicle: saline 168 % of control | dose: 0.2 mg/kg/injection, schedule: Q01DX009 (ip), vehicle: saline 231 % of control and 277 % of control | dose: 0.2 mg/kg/injection, schedule: Q04DX002 (ip), vehicle: saline 163 % of control | dose: 0.22 mg/kg/injection, schedule: Q01DX009 (ip), vehicle: clinical formulation 245 % of control | dose: 0.25 mg/kg/injection, schedule: Q01DX009 (ip), vehicle: saline 275 % of control | dose: 0.25 mg/kg/injection, schedule: Q01DX010 (ip), vehicle: saline 240 % of control and 254 % of control and 163 % of control | dose: 0.3 mg/kg/injection, schedule: Q01DX009 (ip), vehicle: saline 289 % of control and 500 % of control | dose: 0.3 mg/kg/injection, schedule: Q04DX003 (ip), vehicle: saline 186 % of control | dose: 0.45 mg/kg/injection, schedule: Q01DX009 (ip), vehicle: saline 278 % of control and 336 % of control | dose: 0.48 mg/kg/injection, schedule: Q04DX003 (ip), vehicle: saline 232 % of control and 150 % of control | dose: 0.5 mg/kg/injection, schedule: Q04DX003 (ip), vehicle: water 177 % of control | dose: 0.53 mg/kg/injection, schedule: Q04DX003 (ip), vehicle: saline 183 % of control | dose: 0.8 mg/kg/injection, schedule: Q04DX003 (ip), vehicle: clinical formulation 236 % of control | dose: 1.0 mg/kg/injection, schedule: Q01DX001 (ip), vehicle: water 153 % of control | dose: 1.0 mg/kg/injection, schedule: Q04DX003 (ip), vehicle: water 227 % of control | dose: 1.0 mg/kg/injection, schedule: Q04DX004 (ip), vehicle: saline 233 % of control | dose: 1.1 mg/kg/injection, schedule: Q04DX003 (ip), vehicle: saline 532 % of control and 180 % of control | dose: 1.2 mg/kg/injection, schedule: Q04DX003 (ip), vehicle: clinical formulation 240 % of control | dose: 1.3 mg/kg/injection, schedule: Q04DX003 (ip), vehicle: saline 250 % of control | dose: 1.5 mg/kg/injection, schedule: Q04DX004 (ip), vehicle: saline 252 % of control | dose: 1.65 mg/kg/injection, schedule: Q04DX003 (ip), vehicle: saline 532 % of control | dose: 2.0 mg/kg/injection, schedule: Q01DX001 (ip), vehicle: water 168 % of control | dose: 2.47 mg/kg/injection, schedule: Q04DX003 (ip), vehicle: saline 166 % of control | dose: 4.0 mg/kg/injection, schedule: Q01DX001 (ip), vehicle: saline 235 % of control and 163 % of control | dose: 15.6 micrograms/kg/injection, schedule: Q03HX008 (ip), vehicle: clinical formulation 157 % of control | dose: 15.6 micrograms/kg/injection, schedule: Q03HX016 (ip), vehicle: clinical formulation 185 % of control | dose: 31.2 micrograms/kg/injection, schedule: Q03HX008 (ip), vehicle: clinical formulation 185 % of control | dose: 31.2 micrograms/kg/injection, schedule: Q03HX024 (ip), vehicle: clinical formulation 233 % of control | dose: 62.0 micrograms/kg/injection, schedule: Q03HX024 (ip), vehicle: saline 255 % of control | dose: 62.5 micrograms/kg/injection, schedule: Q03HX016 (ip), vehicle: clinical formulation 257 % of control | dose: 62.5 micrograms/kg/injection, schedule: Q04DX003 (ip), vehicle: clinical formulation 166 % of control | dose: 125.0 micrograms/kg/injection, schedule: Q03HX016 (ip), vehicle: clinical formulation 314 % of control | dose: 125.0 micrograms/kg/injection, schedule: Q03HX024 (ip), vehicle: saline 370 % of control | dose: 125.0 micrograms/kg/injection, schedule: Q04DX003 (ip), vehicle: clinical formulation 180 % of control | dose: 125.0 micrograms/kg/injection, schedule: Q08DX002 (ip), vehicle: clinical formulation 171 % of control | dose: 250.0 micrograms/kg/injection, schedule: Q01DX001 (ip), vehicle: clinical formulation 161 % of control | dose: 250.0 micrograms/kg/injection, schedule: Q01DX009 (ip), vehicle: clinical formulation 242 % of control | dose: 250.0 micrograms/kg/injection, schedule: Q03HX008 (ip), vehicle: clinical formulation 247 % of control | dose: 250.0 micrograms/kg/injection, schedule: Q08DX002 (ip), vehicle: clinical formulation 176 % of control | dose: 360.0 micrograms/kg/injection, schedule: Q04DX003 (ip), vehicle: saline 182 % of control | dose: 432.0 micrograms/kg/injection, schedule: Q04DX003 (ip), vehicle: saline 249 % of control | dose: 500.0 micrograms/kg/injection, schedule: Q01DX001 (ip), vehicle: clinical formulation 152 % of control | dose: 500.0 micrograms/kg/injection, schedule: Q04DX003 (ip), vehicle: clinical formulation 228 % of control | dose: 500.0 micrograms/kg/injection, schedule: Q04DX003 (ip), vehicle: saline 248 % of control | dose: 500.0 micrograms/kg/injection, schedule: Q08DX002 (ip), vehicle: clinical formulation 180 % of control | dose: 540.0 micrograms/kg/injection, schedule: Q04DX003 (ip), vehicle: saline 240 % of control and 272 % of control | dose: 600.0 micrograms/kg/injection, schedule: Q04DX003 (ip), vehicle: saline 250 % of control and 182 % of control | dose: 648.0 micrograms/kg/injection, schedule: Q04DX003 (ip), vehicle: saline 254 % of control | dose: 720.0 micrograms/kg/injection, schedule: Q04DX003 (ip), vehicle: saline 225 % of control and 291 % of control | dose: 900.0 micrograms/kg/injection, schedule: Q04DX003 (ip), vehicle: saline 280 % of control and 322 % of control | dose: 1000.0 micrograms/kg/injection, schedule: Q04DX003 (ip), vehicle: clinical formulation 571 % of control | dose: 1000.0 micrograms/kg/injection, schedule: Q08DX002 (ip), vehicle: clinical formulation 228 % of control | dose: 1080.0 micrograms/kg/injection, schedule: Q04DX003 (ip), vehicle: saline 292 % of control | dose: 1500.0 micrograms/kg/injection, schedule: Q04DX003 (ip), vehicle: saline 278 % of control and 320 % of control | dose: 1800.0 micrograms/kg/injection, schedule: Q04DX003 (ip), vehicle: saline 294 % of control | dose: 2000.0 micrograms/kg/injection, schedule: Q08DX002 (ip), vehicle: clinical formulation 300 % of control | dose: 4000.0 micrograms/kg/injection, schedule: Q01DX001 (ip), vehicle: clinical formulation 233 % of control | dose: 4000.0 micrograms/kg/injection, schedule: Q08DX002 (ip), vehicle: clinical formulation 238 % of control
